The numbers were not newly measured in patent publication US20140275257A1, “N-ACETYL CYSTEINE COMPOSITIONS IN THE TREATMENT OF SYSTEMIC LUPUS ERYTHEMATOSUS” (Foundation for the State University of New York, priority 2013, published 2014), which cites them from elsewhere.

Structures are written as SMILES.

For series [1] the following is noted: effects counter to those reported for NAC; Samstrand et al (1999); cited from earlier work.
Another series relates to human SLE patients. The following applies: patients resistant or intolerant to conventional medications; Fernandez et al. (2006); cited from earlier work.
Series [2] concerns CD4+/CD25+/FoxP3+ T cells. The following applies: Lai et al. (2010); cited from earlier work.
Series [3] concerns MRL/lpr lupus mouse model. Conditions: cited from earlier work.

Take `CC(=O)N[C@@H](CSSC[C@H](NC(C)=O)C(=O)O)C(=O)O` [oxidized form of NAC]: in series [1], the “bioactive at doses less than NAC” value is 10-100 fold.

Regarding `CO[C@H]1C[C@@H]2CC[C@@H](C)[C@@](O)(O2)C(=O)C(=O)N2CCCC[C@H]2C(=O)O[C@H]([C@H](C)C[C@@H]2CC[C@@H](O)[C@H](OC)C2)CC(=O)[C@H](C)/C=C(\C)[C@@H](O)[C@@H](OC)C(=O)[C@H](C)C[C@H](C)/C=C/C=C/C=C/1C` [rapamycin], in the series with human SLE patients, the “disease activity in human SLE patients” value is recorded as “improves disease activity”. Besides, the “CD4+/CD25+/FoxP3+ T cells in patients with SLE” value in series [2] is “expanded”. For the same molecule, the “survival of lupusprone MRL/lpr lupus mouse model” value in series [3] (Warner et al. (1994)) is reported as “prolonged survival”. Moreover, the “disease activity in murine lupus” value in series [3] (blockade of mTOR) was “improves disease activity”.
